Measured values taken from US20080221161A1, “HETEROCYCLIC MODULATORS OF TGR5 FOR TREATMENT OF DISEASE” (KALYPSYS, INC., priority 2007, published 2008).

Target: T1, human TGR5 (Homo sapiens, UniProt Q8TDU6)
T1 construct: expressed in transfected cells; host or cells: HEK-293 cells, stably transfected (pcDNA 3.1, Fugene6, geneticin selection)
T1 sequence (Q8TDU6 1-330): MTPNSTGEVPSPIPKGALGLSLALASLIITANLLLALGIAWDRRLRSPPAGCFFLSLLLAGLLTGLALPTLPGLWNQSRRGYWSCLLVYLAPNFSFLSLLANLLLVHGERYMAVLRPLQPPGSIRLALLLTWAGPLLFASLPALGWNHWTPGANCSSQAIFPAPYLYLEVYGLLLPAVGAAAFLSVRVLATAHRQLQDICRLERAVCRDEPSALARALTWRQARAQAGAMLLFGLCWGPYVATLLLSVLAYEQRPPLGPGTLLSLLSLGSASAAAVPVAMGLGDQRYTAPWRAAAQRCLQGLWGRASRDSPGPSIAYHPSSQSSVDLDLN
Experiment: cAMP production assay in HEK293-TGR5 cells
Type: cell-based
Settings: HEK293 cells stably expressing human TGR5; 30 minutes stimulation; LANCE cAMP TR-FRET; read-out: cAMP Production in 293-TGR5 Cells EC50
Method: HEK293 cells stably expressing TGR5 (HEK293-TGR5) were established by stably transfecting HEK-293 cells with an expression vector (pcDNA 3.1, Invetrogen) inserted with human TGR5 cDNA using Fugene6 (Roche, Indianapolis, Ind.) according to conventional methods. Cells were grown in DMEM (invitrogen, Carlsbad, Calif.) supplemented with 10% FBS, 1% penicillin/streptomycin under geneticin selection. The presence of TGR5 transcripts in these cells was confirmed using branched DNA (bDNA, Genospectra, Inc., Fremont Calif.) following the manufacturer's protocol and using specific probes for human TGR5. cAMP production assay was performed in high throughput 1536 well format using LANCE cAMP detection kit (Perkin Elmer Inc., Boston, Mass.) according to the manufacturer's protocol. Briefly, HEK293-TGR5 cells were harvested using non-enzymatic cell dissociation buffer (Invitrogen, Carlsbad, Calif.) and suspended in DMEM supplemented with 0.1% FBS at a density of 800,000 cells/ml. Alexa antibody was added to the cell suspension, and 4 ul of the mixture was dispensed in white opaque tissue culture treated Greiner 1536 well plates (USA Scientific, Inc., Ocala, Fla.). After an overnight incubation at 37C in an atmosphere of 10% CO2 and 95% humidity, 1 ul of 5 mM IBMX (Sigma, St. Louis, Mo.) solution in DMEM was dispensed for a final concentration of 1 mM. Cells were then stimulated with test compounds for 30 minutes, after which time 5 ul of detection reagent was added and incubated for 1-7 hrs at room temperature. TR-FRET signal was detected using the Viewlux (Perkin Elmer Inc., Boston Mass.). EC50 values were determined using Graph Pad Prizm analysis (GraphPad Software, Inc).

SMILES	EC50 [µM]
COc1ccc2cc(CN(C)CCc3ccc(Cl)cc3)c(-c3ccsc3)nc2c1 [Example 35, 2-(4-Chlorophenyl)-N-((7-methoxy-2-(thiophen-3-yl)quinolin-3-yl)methyl)-N-methylethanamine]	> 10
COc1ccc2cc(CNCc3ccc(C(F)(F)F)cc3)c(-c3ncco3)nc2c1 [Example 37, 1-(7-Methoxy-2-(oxazol-2-yl)quinolin-3-yl)-N-(4-(trifluoromethyl)benzyl)methanamine]	> 10
CSc1ccc2cc(CNCc3ccc(C(F)(F)F)cc3)c(-c3ccsc3)nc2c1 [Example 40, 1-(7-(Methylthio)-2-(thiophen-3-yl)quinolin-3-yl)-N-(4-(trifluoromethyl)benzyl)methanamine]	> 10
FC(F)(F)c1ccc(CNCc2cc3ccc(Cl)cc3nc2-c2ccsc2)cc1 [Example 41, 1-(7-Chloro-2-(thiophen-3-yl)quinolin-3-yl)-N-(4-(trifluoromethyl)benzyl)methanamine]	> 10
CCOc1ccc2cc(CNCCc3ccc(Br)cc3)c(-c3cccnc3)nc2c1 [Example 45, 2-(4-Bromophenyl)-N-((7-ethoxy-2-(pyridin-3-yl)quinolin-3-yl)methyl)ethanamine]	> 10
CCOc1ccc2cc(CNCc3ccc(C(F)(F)F)cc3)c(-c3cccnc3)nc2c1 [Example 46, 1-(7-Ethoxy-2-(pyridin-3-yl)quinolin-3-yl)-N-(4-(trifluoromethyl)benzyl)methanamine]	> 10
COc1ccc2cc(CNCc3ccc(C(F)(F)F)cc3)c(-c3cscc3C)nc2c1 [Example 55, 1-(7-Methoxy-2-(4-methylthiophen-3-yl)quinolin-3-yl)-N-(4-(trifluoromethyl)benzyl)methanamine]	> 10
COc1ccc2cc(CNCCc3ccc(Br)cc3)c(-c3cscc3C)nc2c1 [Example 56, 2-(4-Bromophenyl)-N-((7-methoxy-2-(4-methylthiophen-3-yl)quinolin-3-yl)methyl)ethanamine]	> 10
COc1ccc2cc(CNCc3ccc4c(c3)OCO4)c(-c3ccsc3)nc2c1 [Example 64, 1-(Benzo[d][1,3]dioxol-5-yl)-N-((7-methoxy-2-(thiophen-3-yl)quinolin-3-yl)methyl)methanamine]	> 10
COc1ccc2cc(CNCc3ccc([N+](=O)[O-])cc3)c(-c3ccsc3)nc2c1 [Example 67, 1-(7-Methoxy-2-(thiophen-3-yl)quinolin-3-yl)-N-(4-nitrobenzyl)methanamine]	< 10
COc1ccc2cc(CNc3ccccc3)c(-c3ccsc3)nc2c1 [Example 68, N-((7-Methoxy-2-(thiophen-3-yl)quinolin-3-yl)methyl)aniline]	< 10
COc1ccc2cc(CNc3ccc(Cl)cc3)c(-c3ccsc3)nc2c1 [Example 69, 4-Chloro-N-((7-methoxy-2-(thiophen-3-yl)quinolin-3-yl)methyl)aniline]	< 10
COc1ccc2cc(CNCc3ccncc3)c(-c3ccsc3)nc2c1 [Example 70, 1-(7-Methoxy-2-(thiophen-3-yl)quinolin-3-yl)-N-(pyridin-4-ylmethyl)methanamine]	> 10
COc1ccc2cc(CNCc3cnc(C)cn3)c(-c3ccsc3)nc2c1 [Example 71, 1-(7-Methoxy-2-(thiophen-3-yl)quinolin-3-yl)-N-((5-methylpyrazin-2-yl)methyl)methanamine]	< 10
COc1ccc2cc(CNCc3cccnc3)c(-c3ccsc3)nc2c1 [Example 72, 1-(7-Methoxy-2-(thiophen-3-yl)quinolin-3-yl)-N-(pyridin-3-ylmethyl)methanamine]	> 10
COc1ccc2cc(CNCCc3ccc(Br)cc3)c(-c3csc4ccccc34)nc2c1 [Example 73, N-((2-(Benzo[b]thiophen-3-yl)-7-methoxyquinolin-3-yl)methyl)-2-(4-bromophenyl)ethanamine]	< 10
COc1cc(OC)c(CNCc2cc3ccc(OC)cc3nc2-c2ccncc2)c(OC)c1 [Example 74, 1-(7-Methoxy-2-(pyridin-4-yl)quinolin-3-yl)-N-(2,4,6-trimethoxybenzyl)methanamine]	> 10
COc1ccc2cc(CNCc3ccc(C(C)(C)C)cc3)c(-c3ccncc3)nc2c1 [Example 75, N-(4-tert-Butylbenzyl)-1-(7-methoxy-2-(pyridin-4-yl)quinolin-3-yl)methanamine]	< 10

Continued, values first:

EC50 [µM]	SMILES
< 10	COc1ccc2cc(CNCCc3ccc(Cl)cc3)c(-c3ncco3)nc2c1 [Example 38, 2-(4-Chlorophenyl)-N-((7-methoxy-2-(oxazol-2-yl)quinolin-3-yl)methyl)ethanamine]
< 10	CSc1ccc2cc(CNCCc3ccc(Br)cc3)c(-c3ccsc3)nc2c1 [Example 39, 2-(4-Bromophenyl)-N-((7-(methylthio)-2-(thiophen-3-yl)quinolin-3-yl)methyl)ethanamine]
< 10	Cc1ccc2cc(CNCc3ccc(C(F)(F)F)cc3)c(-c3ccsc3)nc2c1 [Example 44, 1-(7-Methyl-2-(thiophen-3-yl)quinolin-3-yl)-N-(4-(trifluoromethyl)benzyl)methanamine]
< 10	COc1ccc2cc(CNCc3ccc(C(F)(F)F)cc3)c(-c3ccccc3)nc2c1 [Example 48, 1-(7-Methoxy-2-phenylquinolin-3-yl)-N-(4-(trifluoromethyl)benzyl)methanamine]
< 10	CCOc1ccc2cc(CNCCc3ccc(Cl)cc3)c(-c3ccsc3)nc2c1 [Example 50, 2-(4-Chlorophenyl)-N-((7-ethoxy-2-(thiophen-3-yl)quinolin-3-yl)methyl)ethanamine]
< 10	CCOc1ccc2cc(CNCc3ccc(C(F)(F)F)cc3)c(-c3ccsc3)nc2c1 [Example 51, 1-(7-Ethoxy-2-(thiophen-3-yl)quinolin-3-yl)-N-(4-(trifluoromethyl)benzyl)methanamine]
< 10	COc1ccc2cc(CNCc3ccc(Br)cc3)c(-c3ccncc3)nc2c1 [Example 52, N-(4-Bromobenzyl)-1-(7-methoxy-2-(pyridin-4-yl)quinolin-3-yl)methanamine]
< 10	COc1cc(OC)c2cc(CNCc3ccc(C(F)(F)F)cc3)c(-c3ccsc3)nc2c1 [Example 53, 1-(5,7-Dimethoxy-2-(thiophen-3-yl)quinolin-3-yl)-N-(4-(trifluoromethyl)benzyl)methanamine]
< 10	COc1cc(OC)c2cc(CNCCc3ccc(Br)cc3)c(-c3ccsc3)nc2c1 [Example 54, 2-(4-Bromophenyl)-N-((5,7-dimethoxy-2-(thiophen-3-yl)quinolin-3-yl)methyl)ethanamine]
< 10	COc1ccc2cc(CNCCc3ccc(Cl)c(Cl)c3)c(-c3ccsc3)nc2c1 [Example 61, 2-(3,4-Dichlorophenyl)-N-((7-methoxy-2-(thiophen-3-yl)quinolin-3-yl)methyl)ethanamine]
< 10	COc1ccc2cc(CNCCc3ccc(OC)c(Br)c3)c(-c3ccsc3)nc2c1 [Example 65, 2-(3-Bromo-4-methoxyphenyl)-N-((7-methoxy-2-(thiophen-3-yl)quinolin-3-yl)methyl)ethanamine]
< 10	COc1ccc2cc(CNCc3ccc(Cl)c(Cl)c3)c(-c3ccsc3)nc2c1 [Example 66, N-(3,4-Dichlorobenzyl)-1-(7-methoxy-2-(thiophen-3-yl)quinolin-3-yl)methanamine]
